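Values below derive from 48-hour exposures of cells grown in 96-well plates, with endpoints linearly interpolated between the two concentrations bracketing the appropriate inhibition level. GI50 marks 50% less growth. At the TGI there is no net growth.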

Test systems include A498 renal; MCF7 breast; NCI-H522 lung; NCI-H23 lung; NCI-H460 lung; UACC-62 melanoma; HCC-2998 colon; OVCAR-8 ovarian; SK-MEL-5 melanoma; HL-60(TB) leukemia.
What all share (experiment): DTP human tumour cell line panel, 48 h

A word on the TGI: it is the concentration at which net growth stops. The low end stands for greater sensitivity of the cells, the high end for lower sensitivity of the cells. On to `CC(C)CC1NC(=O)C(C(C)C)NC(=O)CC(C)COC(=O)C(CC(C)C)N(C)C(=O)C(C(C)C)NC(=O)C(C(C)C)OC1=O` (stereo not given), for which the TGI with A498 renal, in the assay with MCF7 breast, with NCI-H522 lung, in the assay on NCI-H23 lung, in the assay on NCI-H460 lung and in the assay with UACC-62 melanoma was above 50 µM each time. Besides, the concentration for total growth inhibition (TGI) in the assay with HCC-2998 colon, with OVCAR-8 ovarian and in the assay with SK-MEL-5 melanoma was above 50 µM each time.

By GI50 is commonly meant the concentration that inhibits growth by half. Consider `COc1ccc2c(c1)NC(=O)CN2c1nc(C)nc2ccccc12`, for which the GI50 in the assay with A498 renal is 0.000376 µM; in the assay with MCF7 breast, 0.000363 µM; with HL-60(TB) leukemia, 0.000361 µM; in the assay on NCI-H23 lung, 0.000458 µM; with NCI-H460 lung, 0.000397 µM; in the assay with UACC-62 melanoma, 0.000432 µM. The GI50 in the assay with HCC-2998 colon is 0.000371 µM; with OVCAR-8 ovarian, 0.000524 µM; in the assay with SK-MEL-5 melanoma, 0.0004 µM. The TGI with MCF7 breast is above 100 µM; with HL-60(TB) leukemia, 0.00151 µM; with NCI-H23 lung, above 100 µM; with NCI-H460 lung, above 100 µM; in the assay with UACC-62 melanoma it was above 100 µM; with HCC-2998 colon it was 34.2 µM. The TGI in the assay with OVCAR-8 ovarian is above 100 µM; in the assay on SK-MEL-5 melanoma, 0.00186 µM.

Regarding `C[C@H](c1ccc(Cl)cc1[N+](=O)[O-])N1C(=O)c2cc(I)ccc2NC(=O)[C@H]1c1ccc(Cl)cc1`, the GI50 was above 100 µM with A498 renal; 6.53 µM in the assay on MCF7 breast; above 100 µM in the assay on HL-60(TB) leukemia; 8.94 µM in the assay on NCI-H522 lung; above 100 µM with NCI-H23 lung; 6.61 µM with NCI-H460 lung. In addition, the GI50 in the assay with UACC-62 melanoma, in the assay on OVCAR-8 ovarian and in the assay on SK-MEL-5 melanoma was above 100 µM throughout. Moreover, the TGI in the assay on A498 renal, in the assay with MCF7 breast, with HL-60(TB) leukemia, in the assay on NCI-H522 lung, in the assay with NCI-H23 lung and in the assay on NCI-H460 lung was above 100 µM each time. Further, the TGI in the assay with UACC-62 melanoma, with OVCAR-8 ovarian and in the assay on SK-MEL-5 melanoma was above 100 µM in each case.

With `CC1SC(c2cccc(Cl)c2)N(NC(=O)C(O)c2ccccc2)C1=O` (stereo not given), the GI50 with A498 renal was above 100 µM; in the assay on MCF7 breast, above 100 µM; in the assay with NCI-H522 lung, above 100 µM; in the assay with NCI-H23 lung, above 100 µM; in the assay on NCI-H460 lung it was above 100 µM; with UACC-62 melanoma, 39 µM. Moreover, the GI50 in the assay with HCC-2998 colon, in the assay on OVCAR-8 ovarian and with SK-MEL-5 melanoma was above 100 µM in each case. For the same compound, the TGI in the assay on A498 renal, with MCF7 breast, with NCI-H522 lung, in the assay with NCI-H23 lung, with NCI-H460 lung and in the assay on UACC-62 melanoma was above 100 µM in each case. Besides, the TGI with HCC-2998 colon, in the assay on OVCAR-8 ovarian and with SK-MEL-5 melanoma was above 100 µM throughout.

With `CCCCCCCCCCCCCCCC(N)c1ccccc1` (stereo not given), the GI50 was 1.62 µM in the assay on MCF7 breast; 1.37 µM in the assay with HL-60(TB) leukemia; 1.62 µM in the assay with NCI-H522 lung; 1.74 µM in the assay on NCI-H23 lung; 1.91 µM with NCI-H460 lung; 1.66 µM with UACC-62 melanoma. Further, the results for the GI50 in the assay on HCC-2998 colon, in the assay with OVCAR-8 ovarian and with SK-MEL-5 melanoma were 1.67 µM, 2.22 µM and 1.67 µM, respectively. Also, the total growth inhibition concentration (TGI) with MCF7 breast was found to be 3.18 µM; in the assay with HL-60(TB) leukemia it was 3.02 µM; with NCI-H522 lung, 3.21 µM; with NCI-H23 lung it was 3.35 µM; in the assay with NCI-H460 lung, 3.55 µM; with UACC-62 melanoma, 3.21 µM. Besides, the TGI in the assay on HCC-2998 colon was found to be 3.28 µM; with OVCAR-8 ovarian, 4.89 µM; in the assay with SK-MEL-5 melanoma, 3.23 µM.

With `CC(=O)c1cccc(NC(=O)/C(=N\NC(=S)NN)C2C(=O)Nc3ccccc3S2=O)c1` (stereo not given), the TGI in the assay with A498 renal, in the assay on MCF7 breast, in the assay on HL-60(TB) leukemia, in the assay with NCI-H522 lung, in the assay on NCI-H23 lung and in the assay with UACC-62 melanoma was above 100 µM in each case. In addition, the TGI in the assay with OVCAR-8 ovarian and in the assay on SK-MEL-5 melanoma was above 100 µM each time.

In the case of `CC(=O)Nc1cc(CN2CCCCC2)c(O)c2ncccc12`, the TGI in the assay with A498 renal was above 100 µM; in the assay with MCF7 breast, above 100 µM; with HL-60(TB) leukemia, 36.8 µM; in the assay on NCI-H522 lung it was above 100 µM; with NCI-H23 lung, above 100 µM; with NCI-H460 lung, 36.9 µM. Besides, the figures for the TGI in the assay on UACC-62 melanoma, in the assay with OVCAR-8 ovarian and in the assay on SK-MEL-5 melanoma were 46.3 µM, above 100 µM and above 100 µM, respectively.

Take `O=C1CC2OCC=C3CN4CCC56c7ccccc7N1C5C2C3CC46` (stereo not given) (tested in a mixture with another compound): the GI50 in the assay with A498 renal was above 50 µg/mL; in the assay with MCF7 breast, above 50 µg/mL; in the assay with HL-60(TB) leukemia it was 0.103 µg/mL; in the assay with NCI-H522 lung it was above 50 µg/mL; in the assay on NCI-H23 lung, above 50 µg/mL; in the assay on NCI-H460 lung, above 50 µg/mL. Moreover, the GI50 with UACC-62 melanoma, with OVCAR-8 ovarian and in the assay with SK-MEL-5 melanoma was above 50 µg/mL each time. Further, the TGI in the assay with A498 renal was above 50 µg/mL; in the assay with MCF7 breast, above 50 µg/mL; in the assay on HL-60(TB) leukemia, 0.216 µg/mL; with NCI-H522 lung it was above 50 µg/mL; with NCI-H23 lung, above 50 µg/mL; with NCI-H460 lung, above 50 µg/mL. The TGI in the assay on UACC-62 melanoma, in the assay with OVCAR-8 ovarian and with SK-MEL-5 melanoma was above 50 µg/mL throughout.

Regarding `CC1(C)N=C(N)N=C(N)N1c1ccc(CCC(=O)Nc2cccc(S(=O)(=O)F)c2)cc1`, the GI50 was 20.1 µM with A498 renal; 6.48 µM in the assay with MCF7 breast; 2.86 µM with HL-60(TB) leukemia; 7.78 µM in the assay with NCI-H23 lung; 3.04 µM in the assay with NCI-H460 lung; 5.3 µM in the assay on UACC-62 melanoma. In addition, the GI50 in the assay with OVCAR-8 ovarian was 6.46 µM; in the assay on SK-MEL-5 melanoma, 4.83 µM. For the same compound, the TGI with A498 renal, in the assay on MCF7 breast, in the assay on HL-60(TB) leukemia, in the assay with NCI-H23 lung, in the assay on NCI-H460 lung and with UACC-62 melanoma was above 100 µM throughout. Besides, the TGI with OVCAR-8 ovarian and in the assay on SK-MEL-5 melanoma was above 100 µM each time.

For the compound `NCCNc1ncnc2ccc(Cl)cc12`, the TGI in the assay on A498 renal, in the assay with MCF7 breast, in the assay with HL-60(TB) leukemia, in the assay with NCI-H522 lung, in the assay on NCI-H23 lung and in the assay on NCI-H460 lung was above 100 µM in each case. Also, the TGI in the assay on UACC-62 melanoma, in the assay with OVCAR-8 ovarian and in the assay on SK-MEL-5 melanoma was above 100 µM each time.

For the origin of these results see PubChem BioAssay (NCI).
